What all share (test): NCI-60 cell line screen, 48 h
Assay [1] relates to MCF7 breast.
Assay [2] concerns NCI/ADR-RES ovarian.
Assay [3] deals with T-47D breast.
For assay [4], the system named is BT-549 breast.
Assay [5] has as its system MDA-MB-435.

Structures are written as SMILES.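 Each compound was tested at five concentrations against cells in 96-well plates for 48 hours. Here, GI50 denotes the concentration required for 50% inhibition of growth. TGI is the concentration that stops growth completely.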 Where only a bound is given, the exact number is not on record here.

Consider `COC(=O)C1=C(C(=O)OC)C23C=C(C)C1C2=C(C)C1(CC1)[C@@](C)(O)C3=O` (some centres undefined), for which the GI50 is 0.346 µM in assay [1], 0.303 µM in assay [2], 0.515 µM in assay [3] and 0.404 µM in assay [4]. In addition, the TGI in assay [1] is over 100 µM; in assay [2], 4.24 µM; in assay [3] it was 6.4 µM; in assay [4] it was 3.3 µM.
Take `Nc1ccc(/C=N/Nc2ccnc3c(N)cccc23)c2cccnc12`: the GI50 was 1.48 µM in assay [1], 1.93 µM in assay [2], 2.27 µM in assay [3] and 1.64 µM in assay [5]. The TGI is 3.12 µM in assay [1], 4.41 µM in assay [2], 5.02 µM in assay [3] and 3.16 µM in assay [5].
Take `COc1ccc(-c2nc(-c3nc4ccc(OC)cc4[nH]3)cc3c2[nH]c2ccccc23)cc1`: the GI50 was 2.55 µM in assay [1]; 2.1 µM in assay [2]; 2.27 µM in assay [3]; 7.1 µM in assay [4]; 4.31 µM in assay [5]. The TGI in assay [1], in assay [2], in assay [3], in assay [4] and in assay [5] was over 100 µM each time.
On to `COc1cc2nc(Nc3cccc(F)c3)nc(Nc3cc(C)[nH]n3)c2cc1OC`, for which the GI50 in assay [1] is 1.73 µM; in assay [2], 1.6 µM; in assay [3], 1.36 µM; in assay [4], 1.68 µM; in assay [5], 1.63 µM. Further, the TGI in assay [1] came to 3.83 µM; in assay [2] it was 3.64 µM; in assay [3] it was 4.05 µM; in assay [4], 3.2 µM; in assay [5] it was 3.16 µM.
As to `CN(C)CCCc1c[nH]c2ccccc12`, the TGI in assay [1], in assay [2], in assay [3], in assay [4] and in assay [5] was over 100 µM each time.
Consider `NS(=O)(=O)c1ccc(CCN=C=S)cc1`, for which the GI50 in assay [1] was 0.808 µM; in assay [2], 3.2 µM; in assay [3], 0.638 µM; in assay [4], 2.03 µM; in assay [5], 1.91 µM. For the same compound, the TGI came out at 3.13 µM in assay [1]; 11.3 µM in assay [2]; 3.36 µM in assay [3]; 4.37 µM in assay [4]; 3.88 µM in assay [5].
Consider `CCOC(=O)c1c(C(F)(F)F)n([O-])c2ccc(OC)cc2[n+]1=O`, for which the GI50 in assay [1] is 4.38 µM; in assay [2] it was 3.72 µM; in assay [3], 2.6 µM; in assay [4], 4.29 µM; in assay [5] it was 4.47 µM. For the same compound, the TGI in assay [1] was found to be 65 µM; in assay [2] it was 40.7 µM; in assay [3] it was 8.69 µM; in assay [4], 33.7 µM; in assay [5], 76 µM.
Consider `Nc1c(C(=O)Nc2ccccc2Cl)sc2nc3c(cc12)CCCCCC3`, for which the GI50 in assay [1] is 0.896 µM; in assay [2], 2.82 µM; in assay [3] it was 3.88 µM; in assay [4], 3.64 µM; in assay [5], 0.275 µM. For the same compound, the TGI came out at 16.7 µM in assay [1]; 25.4 µM in assay [2]; 17.2 µM in assay [3]; 29.1 µM in assay [4]; 1.1 µM in assay [5].
`CCCCCCCC[N+](C)(CCCCCCCC)CCCCCCCC`: the GI50 was 0.322 µM in assay [1]; 1.51 µM in assay [2]; 0.258 µM in assay [3]; 0.309 µM in assay [4]; 0.273 µM in assay [5]. Besides, the TGI was 1.14 µM in assay [1]; 3.23 µM in assay [2]; 1.73 µM in assay [3]; 0.977 µM in assay [4]; 1.01 µM in assay [5].
Consider `O=C(/C=C\c1ccc(Cl)cc1Cl)c1cccs1`, for which the TGI in assay [1] was 41.1 µM; in assay [2] it was over 100 µM; in assay [3], 55.7 µM; in assay [5] it was 36.2 µM.
`COc1ccc([N+](=O)[O-])c(S(=O)(=O)c2ccc(Cl)cc2)n1`: the GI50 in assay [1] was 2.24 µM; in assay [2] it was 4.93 µM; in assay [3], 2.12 µM; in assay [4] it was 2.75 µM; in assay [5] it was 1.75 µM. In addition, the TGI in assay [1] is 7.29 µM; in assay [2], over 100 µM; in assay [3], 5.41 µM; in assay [4] it was 8.97 µM; in assay [5], 3.66 µM.
Turning to `CCCc1nc2c(C)cc(-c3nc4ccccc4n3C)cc2n1Cc1ccc(-c2ccccc2C(=O)O)cc1`, the GI50 in assay [1] was 31.9 µM; in assay [2], 41.9 µM; in assay [3], 48.5 µM; in assay [4], 52.3 µM; in assay [5], 33.9 µM. For the same compound, the TGI in assay [1], in assay [2], in assay [3], in assay [4] and in assay [5] was over 100 µM in each case.
As for `NCCNC(=S)S`, the TGI in assay [1], in assay [2], in assay [3], in assay [4] and in assay [5] was over 100 µM each time.
On to `COc1cc(-c2cc(-c3nc4ccc(Cl)cc4[nH]3)[nH]n2)cc(OC)c1OC`, for which the GI50 was 2.17 µM in assay [1], 1.58 µM in assay [3], 2.54 µM in assay [4] and 3.3 µM in assay [5]. The TGI amounted to 7.75 µM in assay [1], 4.54 µM in assay [3], 8.35 µM in assay [4] and 12.7 µM in assay [5].
Turning to `NS(=O)(=O)c1ccc(N2N=C3c4ccccc4CC3C2c2ccc(Cl)cc2)cc1` (centres undefined), the GI50 in assay [1] was 25 µM; in assay [2], 10.3 µM; in assay [3], 32.9 µM; in assay [5] it was 16.1 µM. Moreover, the TGI in assay [1] is 59.5 µM; in assay [2] it was 38.5 µM; in assay [3] it was over 100 µM; in assay [5], 37.2 µM.
`CCOC(=O)c1sc(Nc2ccc(Cl)cc2)nc1C`: the GI50 in assay [1] is 1.64 µM; in assay [2] it was 1.78 µM; in assay [4] it was 1.48 µM; in assay [5], 2.12 µM. Further, the TGI in assay [1] turned out to be 6.14 µM; in assay [2] it was 4.08 µM; in assay [4], 3.29 µM; in assay [5], 4.75 µM.

(Values after PubChem BioAssay (NCI).)
